# Values of other authors in patent publication US20250127746A1, “TOPICAL CONTACT SENSITIZERS TO TREAT CANCER” (Squarex Pharmaceutical Corporation, priority 2023, published 2025).
# “Also recorded” adds a separate entry of the source.
# Assays:
# common warts = conditions: Candida injected, SADBE applied topically
# [1] = test system: herpes labialis outbreaks
# [2] = test system: PBMCs stimulated with HSV-1
# [3] = prevention of cold sore episodes
compound,measurement,setting,value
"CCCCOc1c(OCCCC)c(=O)c1=O [SADBE, 3,4-Dibutoxy-3-cyclobutene-1,2-dione]",efficacy to treat common warts,common warts,effective in treating warts; also recorded: effective to treat common warts
same,time after which efficacy begins to wane,[1]; [3],3 to 4 months
same,time for a dose to take effect,[1]; [3],2 to 8 weeks
same,number of oral herpes (herpes labialis) outbreaks,[1]; topical application to the arm,effective in preventing (reducing the number of) herpes labialis episodes; also recorded: reduce frequency of herpes labialis outbreaks; also recorded: prevent and reduce the number of oral herpes outbreaks
same,expression of interferon gamma (IFNG) by isolated PBMCs exposed to HSV,[2]; 8 weeks after a topical application to the arm,increased
same,PBMC proliferation and immune gene expression profile versus subjects with infrequent or zero outbreaks,"[2]; 56 days after a single topical dose, versus day 1",more like those of the subjects with infrequent or zero outbreaks
same,change of immune response type,"[2]; single dose, against both herpes simplex virus and Candida extract",from a type 2 immune response to a type 1 immune response
